The target in data set [1] is recombinant human NAMPT enzyme (Homo sapiens, UniProt P43490). The experiment in a line: NAMPT activity assay (fluorometric). The data set is classed as biochemical. The settings on record: concentrations between 30 and 600 μM (data not shown).
Data set [2] concerns the target T1, human NNMT (mt-hNNMT) (Homo sapiens, UniProt P40261, E101A/E103A/K100A).
T1 sequence (P40261 1-261 K100A/E101A/E103A limits assumed): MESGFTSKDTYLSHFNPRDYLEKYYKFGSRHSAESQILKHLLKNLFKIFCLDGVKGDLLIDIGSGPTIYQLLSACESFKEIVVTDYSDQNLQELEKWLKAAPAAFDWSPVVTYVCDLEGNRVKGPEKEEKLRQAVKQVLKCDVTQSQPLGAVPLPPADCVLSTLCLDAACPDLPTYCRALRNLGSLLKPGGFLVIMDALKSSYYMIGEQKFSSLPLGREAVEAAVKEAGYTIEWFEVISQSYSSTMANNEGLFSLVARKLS
The data set is described as follows: NNMT activity assay (HPLC-UV detection of MNA), NNMT IC50 curves. As to conditions: NNMT Inhibition IC50, mean ± SD of duplicate or triplicate measurements; NI = no observable inhibition.

The nature of data set [3]: Parallel artificial membrane permeability assay (PAMPA). The data set is classed as in vitro ADME. As to conditions: for Papp at 4 h, 400 μM: 400 μM in PBS, room temperature, read-out: Flux; for Permeability Classification (passive transport): BCS classification. The method, then:
Samples were tested in triplicates in three separate experiments.
Background: PAMPA measures passive passage across an artificial lipid membrane.

Data set [4] is described as follows: Bi-directional permeability assay with Caco-2 cells. The settings on record: human, Caco-2, pH 7.4.
Data set [5] concerns Caco-2 cells. The description is as above.
Data set [6] addresses recombinant human PRMT3 enzyme (Homo sapiens, UniProt O60678). The data set is described as follows: PRMT3 activity assay (radiometric). Type of data set: biochemical. From the text: Test compounds were screened in biochemical assays for activity against three structurally similar methyltransferases, including catechol-O-methyltransferase (COMT), DNA (cytosine-5)-methyltransferase 1 (DNMT1), and protein arginine methyltransferase 3 (PRMT3). Additional biochemical assays were used to test the ability of compounds to inhibit nicotinamide phosphoribosyl transferase (NAMPT) and NAD+-dependent protein deacetylase sirtuin 1 (SIRT1), two enzymes in the NAD+ biosynthesis/salvage pathway. All assays were performed by Reaction Biology Corporation (RBC; Malvern, Pa., USA) and complete assay details are noted below. For each test compound, IC50 values were calculated from dose-response curves established with 10 concentrations of a half-log dilution series. For each assay, established enzyme specific inhibitors were included as positive controls for enzyme function and assay reproducibility. IC50 values were determined by non-linear least-squares fitting of a 4-parameter dose-response curve to collected data points (Graphpad Prism 7.0; La Jolla, Calif., USA).
PRMT3 activity assay. […] The analogues, 1,8-diMQ and 5-amino-1MQ were tested at concentrations from 200 μM-10 nM and 600 μM-10 nM, respectively. Reactions were performed with 5 μM histone H3 (histone L-arginine) substrate, 1 μM radiolabeled S-adenosyl-L-[methyl-3H]methionine (SAM) co-substrate, and recombinant human PRMT3 enzyme. Activity was monitored via quantification of radiolabeled reaction product histone [methyl-3H]-L-arginine.

The target of data set [7] is recombinant human DNMT1 enzyme (Homo sapiens, UniProt P26358). The data set is described as follows: DNMT1 activity assay (radiometric). Type of data set: biochemical.
Data set [8] concerns the target T2, recombinant human COMT enzyme (Homo sapiens, UniProt P21964).
T2 construct: Reaction Biology Corporation (ran the assay)
T2 sequence (P21964 1-271): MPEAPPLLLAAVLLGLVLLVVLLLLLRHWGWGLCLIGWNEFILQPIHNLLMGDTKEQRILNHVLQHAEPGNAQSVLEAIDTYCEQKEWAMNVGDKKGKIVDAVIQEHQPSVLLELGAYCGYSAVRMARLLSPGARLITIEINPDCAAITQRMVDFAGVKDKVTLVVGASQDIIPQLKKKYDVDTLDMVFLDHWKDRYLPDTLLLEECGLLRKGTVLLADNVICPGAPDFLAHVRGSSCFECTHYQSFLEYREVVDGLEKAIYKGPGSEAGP
The experiment in a line: COMT activity assay (radiometric). Type of data set: biochemical. The settings on record: maximal tested concentration 200 μM.

In data set [9] the target is T1, human NNMT (mt-hNNMT). As to conditions: values from applicant's published SAR study; read-out: IC50 (NNMT inhibition); cited from earlier work.
Data set [10] deals with NNMT activity in 3T3-L1 pre-adipocytes and differentiated adipocytes. The experiment in a line: Quantitative measurement of NNMT reaction product 1-MNA in cultured cells (LC/MS/MS). The data set is classed as cell-based. The settings on record: 10 μM, 24 h. Here is the method: Differentiation of 3T3-L1 pre-adipocytes. […] Briefly, standard culture media was supplemented with scheduled addition of adipogenic agents [3-isobutyl-1methyl xanthine (IBMX), Sigma Aldrich; MO, USA), dexamethasone (Sigma Aldrich; MO, USA), insulin (Gibco Life Technologies Inc.; Grand Island, N.Y., USA)] over 10 days to promote differentiation of 3T3-L1 fibroblasts into adipocytes; a combination of 1 mM IBMX, 1 μM dexamethasone, and 10 μg/ml of insulin in media were added to fully confluent 3T3-L1 fibroblasts for three days (days 0-3) to initiate differentiation. At day 3, the media was replaced with culture media supplemented with insulin (10 μg/ml). After day 6, cells were maintained in culture media until described experiments were begun (days 8-10).
Cellular 1-MNA concentrations were determined using an ultra-sensitive high-resolution AB Sciex 6500 Q-trap mass spectrometer coupled to an Agilent 1260 ultra-high pressure liquid chromatography (LC/MS/MS) system. Using multiple reaction monitoring (MRM) positive ion mode, the 1-MNA NNMT reaction product was quantified from peak area ratios using AB Sciex Analyst and MultiQuant 2.1 software and the parent precursor and Q3 masses set to m/z 137.1 and 94.1, respectively. Fragment ions at m/z of 92.1 and 77.9 were additionally used for the detection and confirmation of 1-MNA, respectively. […]. To determine the effect of NNMT inhibitor on NNMT activity in the pre-adipocytes and differentiated adipocytes (8×10^4 cells/well seeded prior to beginning differentiation), cells were treated with 30 μM inhibitor for 24 h. Similarly, to compare the relative effects of multiple NNMT inhibitors on NNMT activity in cultured adipocytes, differentiated adipocytes in 6-well plates were treated with 10 μM test compound for 24 h. Following treatment, media was replaced with 80% (v/v) methanol (cooled to −80° C.) containing 500 nmol 6-chloronicotinamide (6-CN) as an internal standard (IS) to extract cellular metabolites. Adherent cells were scrapped, then centrifuged at 4° C. and 13000 g for 15 min, and the resulting supernatants processed using established protocols. […]. Data were subsequently normalized to the IS peak area and transformed as % control values for cross-sample comparisons. […] Choice of inhibitor concentrations and time period was chosen based on the results from the MTT studies.

Setting [11] is: 10 nM to 200 μM (1,8-diMQ) or 600 μM (5-amino-1MQ).

Entries after “also recorded” stand apart in the source; their conditions may differ. Read-outs that look alike come from different tables or passages of the source. Where only a bound is given, the exact number is not on record here.

Sequence of recombinant human PRMT3 enzyme (O60678 whole entry): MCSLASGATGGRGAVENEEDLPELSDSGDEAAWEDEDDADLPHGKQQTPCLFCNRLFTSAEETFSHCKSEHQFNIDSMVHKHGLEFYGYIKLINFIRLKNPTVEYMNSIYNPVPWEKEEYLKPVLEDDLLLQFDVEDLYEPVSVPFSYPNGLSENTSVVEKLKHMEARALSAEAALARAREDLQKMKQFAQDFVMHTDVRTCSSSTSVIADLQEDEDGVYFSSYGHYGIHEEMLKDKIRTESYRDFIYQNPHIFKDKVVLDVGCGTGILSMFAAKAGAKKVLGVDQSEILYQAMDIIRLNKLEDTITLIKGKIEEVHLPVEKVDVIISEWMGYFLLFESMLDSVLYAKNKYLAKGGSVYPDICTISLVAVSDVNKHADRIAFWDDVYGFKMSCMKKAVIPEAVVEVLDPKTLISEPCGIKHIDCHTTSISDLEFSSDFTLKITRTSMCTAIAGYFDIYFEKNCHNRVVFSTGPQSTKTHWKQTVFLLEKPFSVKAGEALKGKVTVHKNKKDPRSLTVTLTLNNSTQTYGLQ
Sequence of recombinant human DNMT1 enzyme (P26358 whole entry): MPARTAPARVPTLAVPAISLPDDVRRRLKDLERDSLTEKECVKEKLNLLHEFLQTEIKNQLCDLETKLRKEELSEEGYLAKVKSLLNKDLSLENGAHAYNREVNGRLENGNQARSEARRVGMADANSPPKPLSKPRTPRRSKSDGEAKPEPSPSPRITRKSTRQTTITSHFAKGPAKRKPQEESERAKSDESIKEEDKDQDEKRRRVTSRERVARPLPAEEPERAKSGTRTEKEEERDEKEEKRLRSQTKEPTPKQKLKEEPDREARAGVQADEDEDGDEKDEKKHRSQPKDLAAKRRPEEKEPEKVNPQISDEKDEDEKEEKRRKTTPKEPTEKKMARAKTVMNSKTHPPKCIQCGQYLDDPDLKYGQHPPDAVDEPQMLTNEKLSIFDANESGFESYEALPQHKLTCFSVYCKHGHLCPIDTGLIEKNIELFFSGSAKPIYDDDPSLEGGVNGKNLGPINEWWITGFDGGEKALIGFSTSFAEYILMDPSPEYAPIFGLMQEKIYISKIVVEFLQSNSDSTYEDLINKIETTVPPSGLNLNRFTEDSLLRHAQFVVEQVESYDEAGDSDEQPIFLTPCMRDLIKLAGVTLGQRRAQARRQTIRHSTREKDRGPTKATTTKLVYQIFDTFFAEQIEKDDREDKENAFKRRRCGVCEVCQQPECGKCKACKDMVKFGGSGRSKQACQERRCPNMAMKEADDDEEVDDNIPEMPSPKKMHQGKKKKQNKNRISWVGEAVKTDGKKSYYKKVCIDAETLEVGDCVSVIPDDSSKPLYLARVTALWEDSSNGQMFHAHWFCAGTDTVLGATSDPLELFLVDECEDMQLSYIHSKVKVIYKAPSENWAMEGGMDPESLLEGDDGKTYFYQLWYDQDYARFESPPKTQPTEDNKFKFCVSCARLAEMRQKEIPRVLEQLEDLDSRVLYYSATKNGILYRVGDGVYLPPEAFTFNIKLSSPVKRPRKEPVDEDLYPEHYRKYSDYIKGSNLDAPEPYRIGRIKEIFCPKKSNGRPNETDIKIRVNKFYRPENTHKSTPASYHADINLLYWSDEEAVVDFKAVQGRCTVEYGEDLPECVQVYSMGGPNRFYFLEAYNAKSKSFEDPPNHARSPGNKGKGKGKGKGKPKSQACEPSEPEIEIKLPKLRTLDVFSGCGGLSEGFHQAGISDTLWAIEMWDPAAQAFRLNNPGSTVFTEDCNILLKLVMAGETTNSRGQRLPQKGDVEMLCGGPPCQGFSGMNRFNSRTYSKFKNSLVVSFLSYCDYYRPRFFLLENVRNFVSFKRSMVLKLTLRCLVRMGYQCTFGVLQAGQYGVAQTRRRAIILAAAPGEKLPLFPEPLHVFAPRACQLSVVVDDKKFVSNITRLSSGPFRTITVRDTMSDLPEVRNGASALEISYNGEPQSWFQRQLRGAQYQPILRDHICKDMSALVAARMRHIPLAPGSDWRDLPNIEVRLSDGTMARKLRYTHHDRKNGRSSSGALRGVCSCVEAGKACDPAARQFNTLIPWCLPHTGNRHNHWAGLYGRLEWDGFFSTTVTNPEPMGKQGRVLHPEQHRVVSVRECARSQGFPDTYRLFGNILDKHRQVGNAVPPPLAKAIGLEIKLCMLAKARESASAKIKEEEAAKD
Sequence of recombinant human NAMPT enzyme (P43490 whole entry): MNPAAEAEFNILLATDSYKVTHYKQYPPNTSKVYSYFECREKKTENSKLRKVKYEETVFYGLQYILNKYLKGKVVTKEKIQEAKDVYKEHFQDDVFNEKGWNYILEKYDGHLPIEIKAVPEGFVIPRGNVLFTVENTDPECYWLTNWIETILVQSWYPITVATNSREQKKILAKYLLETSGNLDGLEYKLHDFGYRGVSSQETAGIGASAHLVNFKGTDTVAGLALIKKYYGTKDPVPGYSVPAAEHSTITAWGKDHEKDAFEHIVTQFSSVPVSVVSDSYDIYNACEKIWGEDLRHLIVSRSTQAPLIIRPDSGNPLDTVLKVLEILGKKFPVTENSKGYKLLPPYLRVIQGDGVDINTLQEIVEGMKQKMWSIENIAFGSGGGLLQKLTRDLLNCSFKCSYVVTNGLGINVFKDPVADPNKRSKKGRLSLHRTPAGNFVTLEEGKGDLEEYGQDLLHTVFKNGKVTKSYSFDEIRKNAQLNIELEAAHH

Take `C[n+]1cccc2c(N)c(F)ccc21` [5-amino-6-fluoro-1MQ]: the “inhibition of NAMPT (in words)” value in data set [1] is reported as “no inhibition”.
A word on the IC50: it is the concentration needed to halve the response being measured. The term Papp B→A denotes how fast a substance crosses the layer from the basolateral side. One may read the inhibition as the percentage by which the read-out fell short of the control. Regarding `Cc1cccc2ccc[n+](C)c12` [1q], the IC50 in [2] is 1.8 ± 0.5 µM; in data set [7] (read-out: IC50, DNA (cytosine-5)-methyltransferase 1, NI: no inhibition), > 200 µM. Moreover, the Papp at 4 h, 400 μM in data set [3] came out at 0.864 ×10⁻⁶ cm/s. Further, the “Permeability Classification (passive transport)” value in data set [3] (listed as 1,8-diMQ) is “low, but non-zero, permeability; also recorded: Low permeability”. In addition, the Papp B→A at 2 h, 10 μM in data set [4] is 1.78 ×10⁻⁶ cm/s. Also, the “Mean A→B Papp” value in data set [5] (Caco-2, 10 μM, 2 h, pH 7.4, BLQ = no peak detected in receiver side) is “BLQ”. Besides, the “Classification (active transport / efflux)” value in data set [5] (Caco-2, listed as 1,8-diMQ) is on record as “very low bi-directional transport; also recorded: Low permeability”. The “inhibition of PRMT3 (in words)” value in data set [6] (setting [11]) was “did not inhibit”. For the same compound, the “inhibition of DNMT1 (in words)” value in data set [7] (setting [11]) was “did not inhibit”. Besides, in data set [8], the inhibition at 200 µM was determined as 20%.
As to `Cc1cc(C)[n+](C)c2c(C)cccc12` [1,2,4,8-tetraMQ], the IC50 in data set [9] is 109 µM. In data set [3], the Papp at 4 h, 400 μM worked out at 0.698 ×10⁻⁶ cm/s and the “Permeability Classification (passive transport)” value is “low, but non-zero, permeability; also recorded: Low permeability”. The “1-MNA levels in differentiated adipocytes relative to control” value in data set [10] was “did not significantly decrease”.
Regarding `Nc1ncnc2c1ncn2[C@@H]1O[C@H](CSCC[C@H](N)C(=O)O)[C@@H](O)[C@H]1O` [SAH, S-adenosylhomocysteine, reference compound], in data set [6] (NC: not calculable (no significant inhibition), read-out: IC50, Protein arginine methyltransferase 3), the concentration for half-maximal inhibition (IC50) was 6.6 ± 1.2 µM.

(Values after patent US11401243B2, “Quinoline derived small molecule inhibitors of nicotinamide N-methyltransferase (NNMT) and uses thereof” (priority 2017, dated 2022).)
